# From paper PMC9501035, “Synthesis of Novel N-Methylmorpholine-Substituted Benzimidazolium Salts as Potential α-Glucosidase Inhibitors” (Molecules, 2022)
# Several values for one entry are separate records, joined by “and”; a condition that tells them apart may be missing. Identical values can stand only once.
# Target: α-glucosidase
# Assay: not given
# Conditions: benzimidazole-bearing Schiff bases; cited from earlier work
row,Structure (SMILES),IC50 [µM]
1,COc1ccc(/C(CSc2nc3ccccc3[nH]2)=N\N=C\c2ccc(OC)cc2O)cc1 [I],2.2 ± 0.1

# Same assay, conditions: benzoylarylbenzimidazoles; cited from earlier work
row,Structure (SMILES),IC50 [µM]
1,O=C(c1ccccc1)c1ccc2nc(-c3ccc(O)cc3)[nH]c2c1 [II],11.02 ± 0.04

# Same assay, conditions: structural hybrids with piperazine and morpholine; cited from earlier work
row,Structure (SMILES),IC50 [µM]
1,CN1CCN(c2ccc3[nH]c(-c4ccc(O)cc4)nc3c2)CC1 [IV X=NMe],2.25 ± 0.28
2,Oc1ccc(-c2nc3cc(N4CCOCC4)ccc3[nH]2)cc1 [IV X=O],3.4 ± 0.86

# Target: α-glucosidase
# Assay: In vitro α-glucosidase inhibition (spectroscopic method)
# Assay type: biochemical
# Conditions: means of experiments, n = 3
# Procedure: α-Glucosidase inhibitions were determined following a modified spectroscopic method. The detailed protocol was already reported. Each experiment was carried out thrice, and percentage inhibitions were determined with the help of the following expression, followed by the determination of IC50 values:% Inhibition = [(Acontrol − Asample)/Acontrol] × 100 where ‘A’ stands for absorbance.
row,IC50,Structure (SMILES)
1,50 ± 0.04 µM,"O=C(C[n+]1c(CN2CCOCC2)n(Cc2ccccc2)c2ccccc21)Nc1ccccc1Cl [Compound 5a, 1-Benzyl-3-(2-((2-chlorophenyl)amino)-2-oxoethyl)-2-(morpholinomethyl)-1H-benzo[d]imidazol-3-ium chloride]"
2,35 ± 0.02 µM,"O=C(C[n+]1c(CN2CCOCC2)n(Cc2ccccc2)c2ccccc21)Nc1ccc(Cl)cc1 [Compound 5b, 1-Benzyl-3-(2-((4-chlorophenyl)amino)-2-oxoethyl)-2-(morpholinomethyl)-1H-benzo[d]imidazol-3-ium chloride]"
3,55 ± 0.14 µM,"O=C(C[n+]1c(CN2CCOCC2)n(Cc2ccccc2)c2ccccc21)Nc1ccccc1Br [Compound 5c, 1-Benzyl-3-(2-((2-bromophenyl)amino)-2-oxoethyl)-2-(morpholinomethyl)-1H-benzo[d]imidazol-3-ium chloride]"
4,15 ± 0.03 µM,"O=C(C[n+]1c(CN2CCOCC2)n(Cc2ccccc2)c2ccccc21)Nc1ccc(Br)cc1 [Compound 5d, 1-Benzyl-3-(2-((4-bromophenyl)amino)-2-oxoethyl)-2-(morpholinomethyl)-1H-benzo[d]imidazol-3-ium chloride]"
5,25 ± 0.106 µM,"O=C(C[n+]1c(CN2CCOCC2)n(Cc2ccccc2)c2ccccc21)Nc1ccc([N+](=O)[O-])cc1 [Compound 5g, 1-Benzyl-3-(2-((4-nitrophenyl)amino)-2-oxoethyl)-2-(morpholinomethyl)-1H-benzo[d]imidazol-3-ium chloride]"
6,21 ± 0.076 µM,"Cc1ccccc1NC(=O)C[n+]1c(CN2CCOCC2)n(Cc2ccccc2)c2ccccc21 [Compound 5h, 1-Benzyl-3-(2-((2-methylphenyl)amino)-2-oxoethyl)-2-(morpholinomethyl)-1H-benzo[d]imidazol-3-ium chloride]"
7,47 ± 0.05 µM,"Cc1cccc(NC(=O)C[n+]2c(CN3CCOCC3)n(Cc3ccccc3)c3ccccc32)c1 [Compound 5i, 1-Benzyl-3-(2-((3-methylphenyl)amino)-2-oxoethyl)-2-(morpholinomethyl)-1H-benzo[d]imidazol-3-ium chloride]"
8,26 µM and 25 µM,"COc1ccccc1NC(=O)C[n+]1c(CN2CCOCC2)n(Cc2ccccc2)c2ccccc21 [Compound 5k, 1-Benzyl-3-(2-((2-methoxyphenyl)amino)-2-oxoethyl)-2-(morpholinomethyl)-1H-benzo[d]imidazol-3-ium chloride]"
9,65 ± 0.015 µM,"COc1ccc(NC(=O)C[n+]2c(CN3CCOCC3)n(Cc3ccccc3)c3ccccc32)cc1 [Compound 5l, 1-Benzyl-3-(2-((4-methoxyphenyl)amino)-2-oxoethyl)-2-(morpholinomethyl)-1H-benzo[d]imidazol-3-ium chloride]"

# Continued, compound first:
row,Structure (SMILES),IC50
1,"O=C(C[n+]1c(CN2CCOCC2)n(Cc2ccccc2)c2ccccc21)Nc1ccccc1[N+](=O)[O-] [Compound 5e, 1-Benzyl-3-(2-((2-nitrophenyl)amino)-2-oxoethyl)-2-(morpholinomethyl)-1H-benzo[d]imidazol-3-ium chloride]",30 ± 0.11 µM
2,"O=C(C[n+]1c(CN2CCOCC2)n(Cc2ccccc2)c2ccccc21)Nc1cccc([N+](=O)[O-])c1 [Compound 5f, 1-Benzyl-3-(2-((3-nitrophenyl)amino)-2-oxoethyl)-2-(morpholinomethyl)-1H-benzo[d]imidazol-3-ium chloride]",19 ± 0.06 µM
3,"Cc1ccc(NC(=O)C[n+]2c(CN3CCOCC3)n(Cc3ccccc3)c3ccccc32)cc1 [Compound 5j, 1-Benzyl-3-(2-((4-methylphenyl)amino)-2-oxoethyl)-2-(morpholinomethyl)-1H-benzo[d]imidazol-3-ium chloride]",88 ± 0.08 µM
4,"O=C(C[n+]1c(CN2CCOCC2)n(Cc2ccccc2)c2ccccc21)Nc1ccccc1 [Compound 5m, 1-Benzyl-2-(morpholinomethyl)-3-(2-oxo-2-(phenylamino)ethyl)-1H-benzo[d]imidazol-3-ium chloride]",110 ± 0.113 µM
